From ChEMBL document CHEMBL1158696, “Bioactive asterosaponins from the starfish Culcita novaeguineae” (J Nat Prod, 2005)

How the values were obtained:
[1] = tested on: Bel-7402; test: Cytotoxicity against human Bel7402 cells after 72 hrs by SRB assay; format: functional, cell-based; conditions: Bel-7402, 72 h
[2] = tested on: K562; test: Cytotoxicity against human K562 cells after 72 hrs by MTT assay; format: functional, cell-based; conditions: K562, 72 h

| Compound | IC50 [1] [µg/mL] | IC50 [2] [µg/mL] |
| --- | --- | --- |
| CC(C)[C@H](C)[C@@H]1O[C@H]1[C@](C)(O)[C@H]1CC[C@H]2[C@@H]3C[C@H](O[C@@H]4O[C@H](CO)[C@@H](O)[C@H](O[C@@H]5O[C@H](C)[C@@H](O[C@@H]6O[C@H](C)[C@H](O)[C@H](O)[C@H]6O[C@@H]6O[C@H](C)[C@H](O)[C@H](O)[C@H]6O)[C@H](O)[C@H]5O[C@@H]5O[C@H](C)[C@H](O)[C@H](O)[C@H]5O)[C@H]4O)[C@H]4C[C@@H](OS(=O)(=O)[O-])CC[C@]4(C)C3=CC[C@]12C.[Na+] [NOVAEGUINOSIDE I] | 9.2 | 8.6 |
| CC(C)[C@H](C)[C@@H]1O[C@H]1[C@](C)(O)[C@H]1CC[C@H]2[C@@H]3C[C@H](O[C@@H]4O[C@H](CO)[C@@H](O)[C@H](O[C@@H]5O[C@H](C)[C@@H](O[C@@H]6OC[C@H](O)[C@H](O)[C@H]6O[C@@H]6O[C@H](C)[C@H](O)[C@H](O)[C@H]6O)[C@H](O)[C@H]5O[C@@H]5O[C@H](C)[C@H](O)[C@H](O)[C@H]5O)[C@H]4O)[C@H]4C[C@@H](OS(=O)(=O)[O-])CC[C@]4(C)C3=CC[C@]12C.[Na+] [NOVAEGUINOSIDE II] | 4.1 | 4.9 |
| CC(C)CC(=O)C[C@](C)(O)[C@H]1CC[C@H]2[C@@H]3C[C@H](O[C@@H]4O[C@H](C)[C@@H](O)[C@H](O[C@@H]5OC[C@@H](O[C@@H]6O[C@H](C)[C@H](O)[C@H](O)[C@H]6O[C@@H]6O[C@H](C)[C@H](O)[C@H](O)[C@H]6O)[C@H](O)[C@H]5O[C@@H]5O[C@H](C)[C@H](O)[C@H](O)[C@H]5O)[C@H]4O)[C@H]4C[C@@H](OS(=O)(=O)[O-])CC[C@]4(C)C3=CC[C@@]21C.[Na+] [regularoside B] | 14.5 | 17.4 |
